Test results reported in paper PMC5491903, “The Selective Phosphoinoside-3-Kinase p110δ Inhibitor IPI-3063 Potently Suppresses B Cell Survival, Proliferation, and Differentiation” (Frontiers in Immunology, 2017).

How the values were obtained:
mouse B cells = test: mouse B cell proliferation (CFSE); assay type: cell-based; conditions: αIgM + IL-4, 72 h
Protocol: Next, we evaluated the effects of PI3K inhibitors on B cell proliferation. We stimulated CFSE-stained cells with αIgM + IL-4 or with LPS for 72 h, or with αCD40 + IL-4 or LPS + IL-4 for 96 h. Cells were treated with vehicle or GDC-0941, IPI-3063, IPI-443, or AS-252424 at various concentrations. […] IPI-443 caused a dose-dependent decrease in proliferation, whereas AS-252424 had no effect. […] In B cells stimulated with LPS + IL-4, the inhibitors had similar trends, but with greater variability (Figure 3D). […] Overall, these experiments establish that the selective p110δ inhibitor IPI-3063 is a very potent inhibitor of B cell survival and proliferation in vitro. In addition, selective p110γ inhibition alone had no effect on B cell survival or proliferation.
Total splenocytes (A,B) or purified B cells (C–E) were pretreated with inhibitors for 30 min, then stimulated with (A,B) αIgM + IL-4 for 72 h, (C–E) LPS + IL-4 for 96 h, LPS for 72 h, or αCD40 + IL-4 for 96 h. […] The experiments in panel (C) include low concentrations of IPI-3063 (0.01 and 0.1 nM) Total numbers were determined by the number of B220^+7AAD^−CFSE^lo cells. […]
Before cell surface staining, cells were incubated with TruStain fcX in FACS buffer (0.5% BSA + 0.02% NaN3 in 1× HBSS) to block Fc receptors for 10 min on ice. […] Flow cytometric data were analyzed using FlowJo software (TreeStar). […]

[1] = system: phosphorylation of ERK1/2 on Thr202/Tyr204 in mouse primary B cells; test: p-ERK1/2 western blot in αIgM + IL-4 stimulated mouse B cells; assay type: cell-based
Protocol: IPI-3063 is a p110δ selective compound with an IC50 = 0.1 nM in p110δ-specific cell-based assays and cellular IC50 values for the other class I PI3K isoforms are at least 1,000-fold higher (Table 2) ([11]). […] To test the effects of p110γ inhibition, we used AS-252424 compound with a biochemical IC50 = 30 nM for p110γ ([17]). We assessed the effects of both IPI-3063 and IPI-443 on PI3K activity in mouse primary B cells stimulated with αIgM + IL-4, by evaluating phosphorylation of AKT at the serine 473 residue (Figures 1A,C) as well as the phosphorylation of ERK1/2 on Thr202/Tyr204 residues (Figures 1B,C). Cells were treated with a pan-PI3K inhibitor GDC-0941 or with various concentrations of IPI-3063 or IPI-443, or DMSO (0.1%) as the diluent control. Separate cultures were treated with the p110γ inhibitor AS-252424 or its diluent control (0.1% EtOH). MK-2206, an AKT inhibitor, which also reduces AKT S473 phosphorylation, was also used as a control to show ERK1/2 phosphorylation is independent of AKT activity. […]
Analysis was performed on western blots using ImageJ to measure mean fluorescence intensities of each band. Phospho-AKT S473 and phospho-ERK1/2 signal was normalized with actin measurements and fold change was calculated using the stimulated/no drug control.

Compound	effect on proliferation (mouse B cells)	effect on p-ERK1/2 ([1]; αIgM + IL-4)	concentration that blocks/decreases proliferation (mouse B cells)	concentration with significant reduction of p-ERK1/2 ([1]; αIgM + IL-4, 1 h stimulation)
O=C1NC(=O)/C(=C/c2ccc(-c3ccc(F)cc3O)o2)S1 [AS-252424, reference compound]	no effect	no significant effect	–	–
CC(C)n1c([C@H](C)Nc2ncnc(N)c2C#N)cc2cccc(-c3ccc(=O)n(C)c3)c2c1=O [IPI-3063]	–	–	1 nM	10 nM
